Results published in US20140221499A1, “NOVEL RODENT CONTROL AGENTS AND USES THEREOF” (priority 2011, published 2014).

Key:
Assay type in all cases: cell-based
rTAAR7h = biological target: T1, rTAAR7h (Rattus norvegicus, UniProt Q923Y4); test: TAAR reporter gene assay, rTAAR7h; parameters: Full Taar coding regions were cloned into pcDNA3.1-(Invitrogen); Rho tag (first 20 aa of bovine rhodopsin + linker); expressed in transfected cells; host or cells: HEK293
T1 sequence (Q923Y4 1-358): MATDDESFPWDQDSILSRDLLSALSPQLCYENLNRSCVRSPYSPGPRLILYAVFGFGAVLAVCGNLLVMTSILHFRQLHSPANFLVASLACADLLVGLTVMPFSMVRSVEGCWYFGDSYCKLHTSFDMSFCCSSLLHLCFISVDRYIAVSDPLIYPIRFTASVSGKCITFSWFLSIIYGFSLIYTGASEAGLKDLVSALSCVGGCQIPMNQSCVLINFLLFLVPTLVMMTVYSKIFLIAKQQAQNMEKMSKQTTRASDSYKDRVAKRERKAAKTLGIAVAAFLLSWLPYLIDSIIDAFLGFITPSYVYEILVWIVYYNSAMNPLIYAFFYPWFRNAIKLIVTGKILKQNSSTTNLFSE
Text: (§1) Here, we set out to identify agonists for additional mouse and rat TAARs. We examined odor response profiles using a previously established reporter gene assay based on cAMP-dependent odor transduction in olfactory sensory neurons (40, 42). Briefly, TAAR plasmids were transfected into HEK293 cells along with a cAMP-dependent reporter gene encoding secreted alkaline phosphatase (CRE-SEAP). TAARs were expressed both in unmodified form and as fusion proteins with an N-terminal sequence of bovine rhodopsin (‘Rho tag’) that promotes cell surface expression of some chemosensory receptors (35). Transfected cells were incubated with test chemicals, and phosphatase activity was quantified with a fluorescent substrate as a reporter for TAAR activation. In initial experiments, we tested 38 different odorant mixtures containing 244 structurally diverse test chemicals (2-5 μM) for the ability to activate each mTAAR. Subsequently, we tested 73 amines that included known mTAAR agonists and related chemicals for the ability to activate each rTAAR.
(§2) TAAR functional assays. […] Fluorescence was measured on an EnVision plate reader (Perkin Elmer) and SEAP activity graphed as relative fluorescence of a phosphatase substrate.

rTAAR7b = biological target: T2, rTAAR7b (Rattus norvegicus, UniProt Q923X8); test: TAAR reporter gene assay, rTAAR7b; parameters: Full Taar coding regions were cloned into pcDNA3.1-(Invitrogen); expressed in transfected cells; host or cells: HEK293
T2 sequence (Q923X8 1-358): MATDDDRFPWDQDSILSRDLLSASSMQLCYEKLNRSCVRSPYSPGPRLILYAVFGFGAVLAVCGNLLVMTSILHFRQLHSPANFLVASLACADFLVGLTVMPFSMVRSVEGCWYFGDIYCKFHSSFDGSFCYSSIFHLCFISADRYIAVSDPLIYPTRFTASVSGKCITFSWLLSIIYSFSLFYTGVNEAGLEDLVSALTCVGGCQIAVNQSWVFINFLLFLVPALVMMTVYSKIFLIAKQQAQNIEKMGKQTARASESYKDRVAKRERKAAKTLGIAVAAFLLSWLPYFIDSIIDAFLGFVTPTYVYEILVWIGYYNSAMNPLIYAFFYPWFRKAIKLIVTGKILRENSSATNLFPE
Text: as §1, §2

mTAAR7f = biological target: T3, mTAAR7f (Mus musculus, UniProt Q5QD08); test: TAAR reporter gene assay, mTAAR7f; parameters: Full Taar coding regions were cloned into pcDNA3.1-(Invitrogen); Rho tag (first 20 aa of bovine rhodopsin + linker); expressed in transfected cells; host or cells: HEK293
T3 sequence (Q5QD08 1-358): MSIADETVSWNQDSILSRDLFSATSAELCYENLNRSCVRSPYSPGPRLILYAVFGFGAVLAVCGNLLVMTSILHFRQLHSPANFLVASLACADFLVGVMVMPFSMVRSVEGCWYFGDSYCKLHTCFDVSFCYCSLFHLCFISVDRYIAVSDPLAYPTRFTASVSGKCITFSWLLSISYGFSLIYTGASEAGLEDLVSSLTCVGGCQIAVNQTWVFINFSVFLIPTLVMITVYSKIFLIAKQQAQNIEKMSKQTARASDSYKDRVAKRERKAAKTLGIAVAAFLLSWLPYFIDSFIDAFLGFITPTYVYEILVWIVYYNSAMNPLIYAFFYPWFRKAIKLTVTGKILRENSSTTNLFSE
Text: as §1, with “Subsequently, we tested 73 amines that included known mTAAR agonists and related chemicals for the ability to activate each rTAAR.” left out
as §2
TAAR functional assays. […] SEAP activity is measured as fluorescence resulting from dephosphorylation of a substrate, 4-methylumbelliferyl phosphate. Fluorescence values were obtained using an EnVision plate reader (Perkin Elmer) and are reported directly without normalization. […]

SMILES | rTAAR7h activation (rTAAR7h) | rTAAR7b activation (rTAAR7b) | mTAAR7f activation (mTAAR7f)
CN(C)CCc1ccccc1 [ligand 6, N,N-dimethyl-2-phenylethylamine] | activated | not | not
CN(C)C1CCCCC1 [ligand 10, N,N-dimethylcyclohexylamine] | not | activated | activated
